Test results taken from publication PMC9321722, “Tailored Pyridoxal Probes Unravel Novel Cofactor‐Dependent Targets and Antibiotic Hits in Critical Bacterial Pathogens” (Angewandte Chemie (International Ed. in English), 2022).

Assays:
[1] = biological target: T1, PA2683 (Pseudomonas aeruginosa, UniProt Q9I0F5); experiment: coupled NADH assay and LC-MS/MS of products; assay type: biochemical
T1 sequence (Q9I0F5 1-320): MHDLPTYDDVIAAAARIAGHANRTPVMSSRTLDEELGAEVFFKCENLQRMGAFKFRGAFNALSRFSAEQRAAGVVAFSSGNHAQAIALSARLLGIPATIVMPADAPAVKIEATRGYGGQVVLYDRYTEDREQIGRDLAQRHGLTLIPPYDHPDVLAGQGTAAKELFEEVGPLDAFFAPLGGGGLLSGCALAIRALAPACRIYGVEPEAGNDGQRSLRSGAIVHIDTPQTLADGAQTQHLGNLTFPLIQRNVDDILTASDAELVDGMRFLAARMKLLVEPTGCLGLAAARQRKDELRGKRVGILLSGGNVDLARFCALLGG

[2] = biological target: T2, pdxK (Escherichia coli, UniProt P40191); experiment: UV/Vis phosphorylation assay; assay type: biochemical
T2 construct: pyridoxal kinase used in UV/Vis phosphorylation assay

[3] = biological target: T3, SaPLK (Staphylococcus aureus, UniProt Q5HI96); experiment: UV/Vis phosphorylation assay; assay type: biochemical
T3 construct: gene pdxK; pyridoxal kinase used in UV/Vis phosphorylation assay
T3 sequence (Q5HI96 1-276): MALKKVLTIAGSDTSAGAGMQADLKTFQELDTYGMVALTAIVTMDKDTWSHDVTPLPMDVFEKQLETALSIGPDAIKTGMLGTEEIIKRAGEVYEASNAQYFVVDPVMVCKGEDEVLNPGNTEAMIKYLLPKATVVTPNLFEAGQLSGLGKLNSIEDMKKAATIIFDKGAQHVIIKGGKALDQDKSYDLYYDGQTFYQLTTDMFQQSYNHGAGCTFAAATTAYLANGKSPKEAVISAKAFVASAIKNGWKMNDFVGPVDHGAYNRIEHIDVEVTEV

[4] = biological target: T1, PA2683; experiment: acceleration of serine/threonine dehydratase activity of overexpressed enzyme; assay type: biochemical
[5] = biological target: T4, A0A0H2XHJ5 (cysteine desulfurase, sufS) (Staphylococcus aureus, UniProt A0A0H2XHJ5); experiment: LC-MS quantification of alanine formed from L-Cys by overexpressed enzyme; assay type: biochemical
T4 construct: with sufU

[6] = biological target: T5, Orn/Lys/Arg decarboxylase (A0A0H2XII6) (Staphylococcus aureus, UniProt A0A0H2XII6); experiment: LC-MS/MS quantification of cadaverine formed by overexpressed enzyme; also competitive PL2 profiling in cells; assay type: biochemical
T5 construct: gene SAUSA300_0458

[7] = biological target: T1, PA2683; experiment: intact protein MS of overexpressed protein; assay type: binding
[8] = biological target: T6, PA3798 (aminotransferase) (Pseudomonas aeruginosa, UniProt Q9HXJ9); experiment: intact protein MS; UV/Vis of holo-enzyme; assay type: binding
T6 sequence (Q9HXJ9 1-382): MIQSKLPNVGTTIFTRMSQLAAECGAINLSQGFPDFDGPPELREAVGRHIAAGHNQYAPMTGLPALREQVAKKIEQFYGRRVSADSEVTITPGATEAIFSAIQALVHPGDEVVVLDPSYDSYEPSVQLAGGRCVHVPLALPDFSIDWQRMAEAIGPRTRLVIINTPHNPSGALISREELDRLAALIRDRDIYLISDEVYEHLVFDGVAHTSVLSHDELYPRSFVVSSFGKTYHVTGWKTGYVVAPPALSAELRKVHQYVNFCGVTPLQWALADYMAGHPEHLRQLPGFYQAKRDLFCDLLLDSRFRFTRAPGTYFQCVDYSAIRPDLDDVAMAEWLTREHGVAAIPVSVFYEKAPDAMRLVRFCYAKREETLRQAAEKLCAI

[9] = biological target: ydcR (Escherichia coli, UniProt P77730); experiment: intact protein MS of overexpressed protein; assay type: binding
[10] = biological target: T7, PA3659 (aminotransferase) (Pseudomonas aeruginosa, UniProt Q9HXY0); experiment: intact protein MS; UV/Vis of holo-enzyme; assay type: binding
T7 sequence (Q9HXY0 1-402): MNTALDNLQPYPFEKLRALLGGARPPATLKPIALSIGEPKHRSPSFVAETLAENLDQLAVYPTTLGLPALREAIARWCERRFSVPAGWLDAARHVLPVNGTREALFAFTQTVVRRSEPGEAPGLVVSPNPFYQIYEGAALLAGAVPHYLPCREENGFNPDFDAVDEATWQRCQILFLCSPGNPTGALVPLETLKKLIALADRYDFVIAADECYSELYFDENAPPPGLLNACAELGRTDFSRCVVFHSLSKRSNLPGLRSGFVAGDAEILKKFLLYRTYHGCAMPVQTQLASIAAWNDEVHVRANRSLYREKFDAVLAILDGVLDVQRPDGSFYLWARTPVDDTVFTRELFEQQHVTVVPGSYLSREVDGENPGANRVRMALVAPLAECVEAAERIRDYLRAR

T2 sequence (P40191 whole entry): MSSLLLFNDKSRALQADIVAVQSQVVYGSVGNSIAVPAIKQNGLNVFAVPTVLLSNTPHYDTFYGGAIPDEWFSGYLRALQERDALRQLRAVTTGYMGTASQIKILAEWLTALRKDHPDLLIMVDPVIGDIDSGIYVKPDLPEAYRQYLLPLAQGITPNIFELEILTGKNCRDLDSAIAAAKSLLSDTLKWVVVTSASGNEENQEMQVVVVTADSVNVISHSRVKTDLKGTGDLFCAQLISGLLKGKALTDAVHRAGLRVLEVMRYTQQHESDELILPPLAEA
T4 sequence (A0A0H2XHJ5 entry or part of it): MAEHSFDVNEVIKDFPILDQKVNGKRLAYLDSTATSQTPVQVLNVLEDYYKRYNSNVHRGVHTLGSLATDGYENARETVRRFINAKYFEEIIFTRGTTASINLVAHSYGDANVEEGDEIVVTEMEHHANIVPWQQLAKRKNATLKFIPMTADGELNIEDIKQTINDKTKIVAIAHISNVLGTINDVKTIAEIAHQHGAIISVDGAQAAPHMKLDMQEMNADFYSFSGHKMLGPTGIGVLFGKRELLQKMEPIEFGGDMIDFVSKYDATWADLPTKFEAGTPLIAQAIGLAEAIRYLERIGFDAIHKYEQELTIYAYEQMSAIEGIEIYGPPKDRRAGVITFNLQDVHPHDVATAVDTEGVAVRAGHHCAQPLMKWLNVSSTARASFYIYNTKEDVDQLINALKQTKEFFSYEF
T4 sequence (A0A0H2XJC0 entry or part of it, further chain): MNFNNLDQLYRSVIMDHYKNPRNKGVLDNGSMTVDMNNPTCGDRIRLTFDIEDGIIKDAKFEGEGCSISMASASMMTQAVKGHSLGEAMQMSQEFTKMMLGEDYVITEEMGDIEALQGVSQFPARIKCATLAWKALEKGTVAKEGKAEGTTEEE
ydcR, sequence (P77730 whole entry): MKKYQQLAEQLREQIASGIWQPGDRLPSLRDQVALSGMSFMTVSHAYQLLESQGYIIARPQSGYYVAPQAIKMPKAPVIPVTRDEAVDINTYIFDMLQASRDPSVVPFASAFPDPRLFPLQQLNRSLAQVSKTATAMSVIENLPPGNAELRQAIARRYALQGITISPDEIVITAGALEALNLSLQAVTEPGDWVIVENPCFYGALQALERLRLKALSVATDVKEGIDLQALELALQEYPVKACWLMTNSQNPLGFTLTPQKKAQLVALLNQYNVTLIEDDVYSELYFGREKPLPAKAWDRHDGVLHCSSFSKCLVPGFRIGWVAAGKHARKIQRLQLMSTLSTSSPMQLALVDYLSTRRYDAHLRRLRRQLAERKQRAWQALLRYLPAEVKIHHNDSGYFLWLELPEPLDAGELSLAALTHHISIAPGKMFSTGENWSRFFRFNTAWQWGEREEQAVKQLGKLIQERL
T5 sequence (A0A0H2XII6 entry or part of it): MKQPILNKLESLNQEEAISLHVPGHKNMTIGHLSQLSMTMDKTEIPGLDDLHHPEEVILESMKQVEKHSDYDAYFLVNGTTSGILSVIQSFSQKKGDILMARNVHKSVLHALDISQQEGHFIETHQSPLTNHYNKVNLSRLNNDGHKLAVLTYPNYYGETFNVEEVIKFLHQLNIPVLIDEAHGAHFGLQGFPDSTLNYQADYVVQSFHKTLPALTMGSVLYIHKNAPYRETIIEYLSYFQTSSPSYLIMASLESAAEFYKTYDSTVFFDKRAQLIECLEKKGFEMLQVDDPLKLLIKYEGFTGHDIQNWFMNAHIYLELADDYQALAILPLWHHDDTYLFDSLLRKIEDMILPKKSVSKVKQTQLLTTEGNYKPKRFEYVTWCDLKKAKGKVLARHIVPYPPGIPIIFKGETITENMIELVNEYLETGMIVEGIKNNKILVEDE

N[C@@H](CO)C(=O)O [L-serine]
coupled NADH assay and LC-MS/MS of products [1]: The enzyme was overexpressed and indeed turnover of L‐serine was observed together with NADH consumption within a coupled assay

C#CCCc1ncc(CO)c(C=O)c1O [PL2]
UV/Vis phosphorylation assay [2]: we observed phosphorylation of all probes except for PL11 and PL12

C#Cc1nc(C)c(O)c(C=O)c1CO [PL10]
UV/Vis phosphorylation assay [3]: we observed phosphorylation of all probes except for PL11 and PL12 | UV/Vis phosphorylation assay [2]: we observed phosphorylation of all probes except for PL11 and PL12

Nc1ncnc2c1ncn2[C@@H]1O[C@H](COP(=O)(O)O)[C@@H](O)[C@H]1O [adenosine monophosphate]
acceleration of serine/threonine dehydratase activity of overexpressed enzyme [4]: the catalysis was accelerated by adding adenosine monophosphate (AMP) and magnesium

NNCCc1ccccc1 [phenelzine]
IC50 [5]: 14.7 ± 1.22 µM | IC50 [6]: 53.1 ± 1.05 µM

Cc1ncc(COP(=O)(O)O)c(C=O)c1O [pyridoxal phosphate]
intact protein MS of overexpressed protein [7]: PLP binding of all overexpressed enzymes was confirmed via intact protein MS (IP‐MS, Figure 4A) | intact protein MS; UV/Vis of holo-enzyme [8]: PLP binding of all overexpressed enzymes was confirmed via intact protein MS (IP‐MS, Figure 4A) | intact protein MS of overexpressed protein [9]: PLP binding of all overexpressed enzymes was confirmed via intact protein MS (IP‐MS, Figure 4A) | intact protein MS; UV/Vis of holo-enzyme [10]: PLP binding of all overexpressed enzymes was confirmed via intact protein MS (IP‐MS, Figure 4A)
